Experiments:
[1] = test system: MCF-7 breast adenocarcinoma cells; test: MCF-7 proliferation assay (14C-thymidine), antagonist mode; assay type: cell-based
Procedure: MCF-7 breast adenocarcinoma cells (ATCC HTB 22) are maintained in MEM (minimal essential medium, phenol red-free, Gibco BRL) supplemented with 10% fetal bovine serum (FBS) (V/V), L-glutamine (2 mM), sodium pyruvate (1 mM), HEPES ((N-[2-hydroxyethyl]piperazine-N′-[2-ethanesulfonic acid]10 mM}, non-essential amino acids (0.1 mM) and Penicillin Streptomycin(IX). Seven days prior to assay, MCF-7 cells are switched to assay media which is the same as maintenance medium except supplemented with 10% dextran-coated charcoal-stripped fetal bovine serum (DCC-FBS) assay medium in place of 10% FBS. MCF-7 cells are removed from flasks using 10× Trypsin EDTA (phenol red free, Gibco BRL) and diluted to 1× in (Ca++/Mg++ free HBSS (phenol red-free). Cells are adjusted to 80,000 cells/ml in assay medium. […] For each of the agonist plates, a basal level (media), and a maximum stimulated level (with 1 μM E2) is determined. For each of the antagonist plates, a basal level (media) and a E2 (10 pM) alone control is determined. […] The plates are incubated overnight in the same incubator and then counted on the Wallac Microbeta counter. […] For the agonist mode, an EC50 and percent of maximum E2 stimulation and concentration of maximum stimulation is calculated. […]

[2] = test system: Ishikawa human endometrial tumor cells; test: Ishikawa cell alkaline phosphatase (PNPP) assay, antagonist mode; assay type: cell-based
Description: Ishikawa human endometrial tumor cells are maintained in MEM (minimum essential medium, with Earle's salts and L-Glutamine, Gibco BRL, Gaithersburg, Md.), supplemented with 10% fetal bovine serum (FBS) (V/V), (Gibco BRL). One day prior to assay, growth media is changed to assay medium, DMEM/F-12 (3:1) (Dulbecco's Modified Eagle Medium: Nutrient Mixture F-12, 3:1 Mixture, phenol red-free, Gibco BRL) supplemented with 5% dextran coated charcoal stripped fetal bovine serum (DCC-FBS) (Hyclone, Logen, UT), L-Glutamine (2 mM), MEM sodium pyruvate (1 mM), HEPES (N-[2-hydroxyethyl]piperazine-N′-[2-ethanesulfonic acid]2 mM) all from Gibco BRL). After an overnight incubation, ishikawa cells are rinsed with Dulbecco's Phosphate Buffered Saline (1×) (D-PBS) without Ca^+2 and Mg^+2 (Gibco BRL), and trypsinized by a 3 minute incubation with 0.25% Trypsin/EDTA, phenol red-free (Gibco BRL). Cells are resuspended in assay medium and adjusted to 250,000 cells/ml. […] After a 20-minute incubation, plates are read on a spectophotometer at 405 nm. […] For the agonist mode, a % efficacy for each compound is calculated versus the response to Tamoxifen. For the antagonist mode, a % efficacy for each compound is calculated versus E2 (1 nM) alone.

ERbeta receptor = biological target: T1, ERbeta receptor (Homo sapiens, UniProt Q92731); test: Competition binding assay, 3H-Estradiol, ER beta; settings: IC50 converted to Ki using Cheng-Prusoff equation; read-out: Binding ER b Ki
T1 construct: purchased PanVera
T1 sequence (Q92731 whole entry): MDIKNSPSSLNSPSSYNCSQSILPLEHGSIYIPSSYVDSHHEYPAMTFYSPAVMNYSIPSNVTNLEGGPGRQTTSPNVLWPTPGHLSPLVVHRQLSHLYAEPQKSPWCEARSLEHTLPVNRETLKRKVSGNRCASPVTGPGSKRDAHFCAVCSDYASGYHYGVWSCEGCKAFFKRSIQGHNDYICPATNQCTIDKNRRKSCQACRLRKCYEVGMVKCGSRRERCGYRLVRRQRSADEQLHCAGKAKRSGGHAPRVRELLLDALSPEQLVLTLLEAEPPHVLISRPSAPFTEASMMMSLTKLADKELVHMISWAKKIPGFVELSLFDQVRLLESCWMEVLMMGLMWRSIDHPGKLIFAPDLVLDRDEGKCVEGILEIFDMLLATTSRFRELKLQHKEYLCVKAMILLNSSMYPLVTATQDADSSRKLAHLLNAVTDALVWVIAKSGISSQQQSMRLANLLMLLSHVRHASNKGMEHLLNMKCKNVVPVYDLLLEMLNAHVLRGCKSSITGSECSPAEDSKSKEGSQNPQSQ
Procedure: (§1) Competition binding assay is run in a buffer containing 50 mM Hepes, pH 7.5, 1.5 mM EDTA, 150 mM NaCl, 10% glycerol, 1 mg/ml ovalbumin and 5 mM DTT, using 0.025 μCi per well ^3H-Estradiol(NEN #NET517 at […], 1 mCi/ml), 10 ng/well ERAlpha or ERbeta receptor (PanVera). Competing compounds are added at 10 different concentrations. Non-specific binding is determined in the presence of 1 μM of 17-B Estradiol. The binding reaction (140 μl) is incubated for 4 hours at room temperature, then 70 μl of cold DCC buffer is added to each reaction (DCC buffer contains per 50 ml of assay buffer, 0.75 g of charcoal (Sigma) and 0.25 g of dextran (Pharmacia)). Plates are mixed 8 minutes on an orbital shaker at 4° C. Plates are then centrifuged at 3,000 rpm at 4° C. for 10 minutes. An aliquot of 120 μl of the mix is transferred to another 96-well, white flat bottom plate (Costar) and 175 μl of Wallac Optiphase “Hisafe 3” scintillation fluid is added to each well. Plates are sealed and shaken vigorously on an orbital shaker. After an incubation of 2.5 hrs, read plates in a Wallac Microbeta counter. The data is used to calculate an IC50 and % Inhibition at 10 μM. The Kd for ^3H-Estradiol is determined by saturation binding to ER alpha and ER beta receptors. The IC50 values for compounds are converted to K; using Cheng-Prusoff equation and the Kd determined by saturation binding assay.

ERAlpha receptor = biological target: T2, ERAlpha receptor (Homo sapiens, UniProt P03372); test: Competition binding assay, 3H-Estradiol, ER alpha; settings: IC50 converted to Ki using Cheng-Prusoff equation
T2 construct: purchased PanVera
T2 sequence (P03372 1-595): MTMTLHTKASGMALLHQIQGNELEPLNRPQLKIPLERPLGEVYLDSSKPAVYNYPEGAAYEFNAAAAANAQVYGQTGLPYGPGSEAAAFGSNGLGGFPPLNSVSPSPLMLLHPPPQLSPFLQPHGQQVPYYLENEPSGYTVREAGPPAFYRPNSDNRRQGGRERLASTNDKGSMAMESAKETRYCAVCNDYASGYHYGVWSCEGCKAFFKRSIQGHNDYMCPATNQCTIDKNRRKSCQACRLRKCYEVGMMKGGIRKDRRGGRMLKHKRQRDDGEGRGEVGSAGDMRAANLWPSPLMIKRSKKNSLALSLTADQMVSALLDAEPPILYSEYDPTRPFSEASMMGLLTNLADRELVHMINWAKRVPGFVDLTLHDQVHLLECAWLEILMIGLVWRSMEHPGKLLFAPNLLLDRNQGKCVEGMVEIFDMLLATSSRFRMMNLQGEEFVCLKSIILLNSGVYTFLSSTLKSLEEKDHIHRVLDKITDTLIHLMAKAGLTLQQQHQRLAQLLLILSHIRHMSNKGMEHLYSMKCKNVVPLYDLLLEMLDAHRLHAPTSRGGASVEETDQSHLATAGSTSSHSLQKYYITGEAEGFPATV
Procedure: as §1

COc1ccc(-c2ccc3cc(O)ccc3c2Oc2ccc(OCCCC[S+]([O-])CCCC(F)(F)C(F)(F)F)cc2)cc1 (stereo not drawn) [Example 2, 6-(4-Methoxy-phenyl)-5-{4-[4-(4,4,5,5,5-pentafluoro-pentane-sulfinyl)-butoxy]-phenoxy}-naphthalen-2-ol]
MCF-7 Antag. % Eff. ([1]; 10 pM E2, % inhibition @ 1 μM): 86% | IC50 ([1]; Homo sapiens, MCF7, 10 pM E2, read-out: MCF-7 IC 50): 2.5 nM | Ishikawa Antag. % Eff. ([2]; % efficacy versus E2 (1 nM) alone): 100% | IC50 ([2]; Homo sapiens, Ishikawa, E2 1 nM, read-out: Ishikawa IC 50): 6.8 nM | Ki (ERbeta receptor): 0.2 nM | Ki (ERAlpha receptor): 0.3 nM

— patent publication US7462647B2, “Pentalfluoroalkanesulfinyl naphthalenes and related estrogen receptor modulators” (Eli Lilly and Company, priority 2003, dated 2008)
